Test results reported in BindingDB's records for doi:10.1016/j.ab.2006.10.017 (Pfizer, 2007).

Target: T1, Renin (Homo sapiens, UniProt P00797)
T1 sequence (P00797 whole entry): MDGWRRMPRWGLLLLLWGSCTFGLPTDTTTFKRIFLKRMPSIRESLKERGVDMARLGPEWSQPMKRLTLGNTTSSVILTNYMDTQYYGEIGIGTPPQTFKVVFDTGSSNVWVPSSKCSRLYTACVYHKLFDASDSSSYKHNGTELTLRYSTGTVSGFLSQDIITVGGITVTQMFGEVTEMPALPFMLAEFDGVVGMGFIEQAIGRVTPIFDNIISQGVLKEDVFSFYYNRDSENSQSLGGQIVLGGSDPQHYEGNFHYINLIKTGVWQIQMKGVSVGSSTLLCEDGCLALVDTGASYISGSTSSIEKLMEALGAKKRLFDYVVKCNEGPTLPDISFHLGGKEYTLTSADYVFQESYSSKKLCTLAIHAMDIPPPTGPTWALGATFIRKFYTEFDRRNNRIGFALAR
Experiment: In Vitro Renin IC50 Determinations (Tandem GFP FRET Assay)
Details: pH 7.4; 22 °C
Text: The renin assay utilized a tandem Green Flourescent Protein (tGFP) substrate that was hydrolyzed by human rennin.

Row | SMILES | IC50
1 | CCc1nc(N)nc(NCCNS(=O)(=O)c2ccc3ccccc3c2)c1-c1ccc2c(c1)N(CCCOC)C(=O)C(C)(C)O2 [N-[2-({2-amino-6-ethyl-5-[4-(3-methoxypropyl)-2,2-dimethyl-3-oxo-3,4-dihydro-2H-1,4-benzoxazin-6-yl]pyrimidin-4-yl}amino)ethyl]naphthalene-2-sulfonamide] | 0.027 µM
2 | CCc1nc(N)nc(N)c1-c1ccc2c(c1)N(CCCOC)C(c1ccccc1)CC2 (stereo unspecified) [6-ethyl-5-[1-(3-methoxypropyl)-2-phenyl-1,2,3,4-tetrahydroquinolin-7-yl]pyrimidine-2,4-diamine] | 0.058 µM
3 | CCc1nc(N)nc(NCCc2ccccc2NC(=O)c2ccc(N)c(OC)c2)c1-c1ccc2c(c1)N(CCCOC)C(=O)C(C)(C)O2 [4-amino-N-{2-[2-({2-amino-6-ethyl-5-[4-(3-methoxypropyl)-2,2-dimethyl-3-oxo-3,4-dihydro-2H-1,4-benzoxazin-6-yl]pyrimidin-4-yl}amino)ethyl]phenyl}-3-methoxybenzamide] | 0.336 µM

Further lines, results first:

Row | IC50 | SMILES
4 | 0.691 µM | CCc1nc(N)nc(N)c1-c1ccc2c(c1)N(CCCOC)CCC2 [6-ethyl-5-[1-(3-methoxypropyl)-1,2,3,4-tetrahydroquinolin-7-yl]pyrimidine-2,4-diamine]
5 | 6.56 µM | CCc1nc(N)nc(N)c1-c1ccc(NCc2cc(F)cc(F)c2)cc1 [5-(4-{[(3,5-difluorophenyl)methyl]amino}phenyl)-6-ethylpyrimidine-2,4-diamine]
6 | 0.173 µM | CCc1nc(N)nc(N)c1-c1ccc2c3ccccc3n(CCCOC)c2c1 [6-ethyl-5-[9-(3-methoxypropyl)-9H-carbazol-2-yl]pyrimidine-2,4-diamine]
